As usually defined, the Ki is a dissociation constant, usually derived from enzyme kinetics or from competition with a known ligand.

Where two headings read alike, the source gives them in different places.

The source of these data is patent publication US11731943B2, “Therapeutic compounds, compositions and methods of use thereof” (priority 2016, dated 2023).

The target of test [1] is isolated recombinant JAK1 kinase domain (Homo sapiens (Human), UniProt P23458). Briefly: JAK1 enzyme assay (Caliper LabChip, Ki). The test is classed as biochemical. On the procedure: (§1) JAK Enzyme Assays were carried out as follows:
(§2) The activity of the isolated recombinant JAK1 and JAK2 kinase domain was measured by monitoring phosphorylation of a peptide derived from JAK3 (Val-Ala-Leu-Val-Asp-Gly-Tyr-Phe-Arg-Leu-Thr-Thr, fluorescently labeled on the N-terminus with 5-carboxyfluorescein) using the Caliper LabChip® technology (Caliper Life Sciences, Hopkinton, Mass.). […] Reactions were incubated at 22° C. in 384-well polypropylene microtiter plates for 30 minutes and then stopped by addition of 25 μL of an EDTA containing solution (100 mM HEPES buffer (pH 7.2), 0.015% Brij-35, 150 mM EDTA), resulting in a final EDTA concentration of 50 mM. After termination of the kinase reaction, the proportion of phosphorylated product was determined as a fraction of total peptide substrate using the Caliper LabChip® 3000 according to the manufacturer's specifications. Ki values were then determined using the Morrison tight binding model (Morrison, J. F., Biochim. Biophys. Acta. 185:269-296 (1969); William, J. W. and Morrison, J. F., Meth. Enzymol., 63:437-467 (1979)) modified for ATP-competitive inhibition [Ki=Ki,app/(1+[ATP]/Km,app)].

The target in test [2] is isolated recombinant JAK2 kinase domain (Homo sapiens (Human), UniProt O60674). Briefly: JAK2 enzyme assay (Caliper LabChip, Ki). It is filed as biochemical. On the procedure: as §1
Sequence of isolated recombinant JAK2 kinase domain (O60674 849-1124): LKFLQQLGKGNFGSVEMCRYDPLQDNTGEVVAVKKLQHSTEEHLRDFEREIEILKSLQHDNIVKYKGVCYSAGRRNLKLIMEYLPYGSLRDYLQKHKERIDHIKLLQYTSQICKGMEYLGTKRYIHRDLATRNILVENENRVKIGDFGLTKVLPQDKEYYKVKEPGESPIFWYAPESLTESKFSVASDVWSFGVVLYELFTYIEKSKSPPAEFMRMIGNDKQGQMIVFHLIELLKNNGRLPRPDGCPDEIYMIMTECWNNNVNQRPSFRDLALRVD
as §2, with “([…]” for “(Val-Ala-Leu-Val-Asp-Gly-Tyr-Phe-Arg-Leu-Thr-Thr,”, “specifications.” for “specifications. Ki values were then determined using the Morrison tight binding model (Morrison, J. F., Biochim. Biophys. Acta. 185:269-296 (1969); William, J. W. and Morrison, J. F., Meth. Enzymol., 63:437-467 (1979)) modified for ATP-competitive inhibition [Ki=Ki,app/(1+[ATP]/Km,app)].”

Sequence of isolated recombinant JAK1 kinase domain (P23458 875-1153): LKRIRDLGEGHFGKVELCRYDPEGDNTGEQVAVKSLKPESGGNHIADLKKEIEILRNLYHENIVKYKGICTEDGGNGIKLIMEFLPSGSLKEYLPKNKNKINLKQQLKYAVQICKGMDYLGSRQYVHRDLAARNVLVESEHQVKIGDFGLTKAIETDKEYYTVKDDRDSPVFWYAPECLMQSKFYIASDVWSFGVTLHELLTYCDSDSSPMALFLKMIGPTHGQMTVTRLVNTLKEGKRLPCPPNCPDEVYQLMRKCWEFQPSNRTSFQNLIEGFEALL

Regarding `N#CCC1(n2cc(C(N)=O)c(NC(=O)C3CC3)n2)CCN(Cc2cccc(CN)c2)CC1` [Example 97], the Ki in test [1] (read-out: JAK1 Ki) came out at 41 nM; in test [2], 163 nM.

In the case of `N#CCC1(n2cc(C(N)=O)c(NC(=O)[C@H]3C[C@@H]3C3CC3)n2)CCN(CC(F)(F)F)CC1` (stereo in doubt) [Example 177, 1-[4-(cyanomethyl)-1-(2,2,2-trifluoroethyl)-4-piperidyl]-3-[(2-cyclopropylcyclopropanecarbonyl)amino]pyrazole-4-carboxamide], the Ki turned out to be 18.7 nM in test [1] (read-out: JAK1 Ki) and 226 nM in test [2].

On to `N#CCC1(n2cc(C(N)=O)c(NC(=O)C3CC3)n2)CCN(Cc2ccc(-c3cccc(C(F)(F)F)c3)cc2)CC1` [Example 150, 1-[4-(cyanomethyl)-1-[[4-[3-(trifluoromethyl)phenyl]phenyl]methyl]-4-piperidyl]-3-(cyclopropanecarbonylamino) pyrazole-4-carboxamide], for which the Ki in test [1] (read-out: JAK1 Ki) turned out to be 15.9 nM; in test [2], 208 nM.

Consider `N#CC[C@]1(n2cc(C(N)=O)c(NC(=O)C3CC3)n2)CC[C@H](NCc2ccc(F)cc2)CC1` [Example 115], for which the Ki in test [1] worked out at 21.9 nM; in test [2], 300 nM.

Consider `N#CCC1(n2cc(C(N)=O)c(NC(=O)C3CC3)n2)CCN(Cc2cccc(C(F)(F)F)c2)CC1` [Example 62], for which the inhibitory constant (Ki) in test [1] (read-out: JAK1 Ki) is 27.6 nM; in test [2], 285 nM.

Regarding `N#CCC1(n2cc(C(N)=O)c(NC(=O)C3CC3)n2)CCN(C(=O)Cc2ccccc2)CC1` [Example 18, 1-(4-(Cyanomethyl)-1-(2-phenylacetyl)piperidin-4-yl)-3-(cyclopropanecarboxamido)-1H-pyrazole-4-carboxamide], the Ki in test [1] (read-out: JAK1 Ki) amounted to 30.8 nM; in test [2], 235 nM.

Consider `N#CCC1(n2cc(C(N)=O)c(NC(=O)C3CC3)n2)CCN(CC(O)c2ccccc2)CC1` (stereo not drawn) [Example 20, 1-(4-(cyanomethyl)-1-(2-hydroxy-2-phenylethyl)piperidin-4-yl)-3-(cyclopropanecarboxamido)-1H-pyrazole-4-carboxamide], for which the Ki was 447 nM in test [1] and greater than 319 nM in test [2].

With `CS(=O)(=O)Nc1ccccc1CN1CCC(CC#N)(n2cc(C(N)=O)c(NC(=O)C3CC3)n2)CC1` [Example 44], the Ki was 27.6 nM in test [1] (read-out: JAK1 Ki) and 174 nM in test [2].

On to `N#CC[C@]1(n2cc(C(N)=O)c(NC(=O)C3CC3)n2)CC[C@H](NC2CC(F)(F)C2)CC1` [Example 172, 1-[1-(cyanomethyl)-4-[(3,3-difluorocyclobutyl)amino]cyclohexyl]-3-(cyclopropanecarbonylamino) pyrazole-4-carboxamide], for which the Ki in test [1] is greater than 562 nM; in test [2] it was greater than 319 nM.

In the case of `N#CCC1(n2cc(C(N)=O)c(NC(=O)C3CC3)n2)CCN(Cc2cccc(Cl)c2)CC1` [Example 59], the Ki amounted to 4.7 nM in test [1] (read-out: JAK1 Ki) and 35.9 nM in test [2].

For `COc1ccc(CN2CCC(CC#N)(n3cc(C(N)=O)c(NC(=O)C4CC4)n3)CC2)cc1` [Example 43], the results for the inhibition constant (Ki) in test [1] (read-out: JAK1 Ki) and in test [2] were 25.8 nM and 170 nM, respectively.

With `N#CCC1(n2cc(C(N)=O)c(NC(=O)C3CC3)n2)CCN(C(=O)CC(F)(F)F)CC1` [Example 170, 1-[4-(cyanomethyl)-1-(3,3,3-trifluoropropanoyl)-4-piperidyl]-3-(cyclopropanecarbonylamino) pyrazole-4-carboxamide], the Ki in test [1] (read-out: JAK1 Ki) turned out to be 6.7 nM; in test [2], 70.9 nM.

Regarding `N#CC[C@]1(n2cc(C(N)=O)c(NC(=O)C3CC3)n2)CC[C@@H](NCc2cccc(F)c2)CC1` [Example 114], the Ki is greater than 562 nM in test [1] and greater than 319 nM in test [2].

Turning to `N#CCC1(n2cc(C(N)=O)c(NC(=O)C3CC3)n2)CCN(Cc2ccc3nc[nH]c3c2)CC1` [Example 73], the results for the Ki in test [1] (read-out: JAK1 Ki) and in test [2] were 57.3 nM and 272 nM, respectively.

Take `CN[C@H]1CC[C@](CC#N)(n2cc(C(N)=O)c(NC(=O)C3CC3)n2)CC1` [Example 99]: the inhibition constant (Ki) in test [1] was 92.2 nM; in test [2] it was greater than 319 nM.

`N#CC[C@]1(n2cc(C(N)=O)c(NC(=O)C3CC3)n2)CC[C@@H](NCc2ccc(Cl)cc2)CC1` [Example 120]: the Ki in test [1] was 12 nM; in test [2], 115 nM.

Consider `N#CCC1(n2cc(C(N)=O)c(NC(=O)[C@H]3C[C@@H]3C(F)(F)F)n2)CCN(CC(F)(F)F)CC1` [Example 27], for which the Ki in test [1] (read-out: JAK1 Ki) was determined as 102 nM; in test [2], 781 nM.

In the case of `N#CC[C@]1(n2cc(C(N)=O)c(NC(=O)C3CC3)n2)CC[C@H](NCc2ccccc2)CC1` [Example 109], the results for the Ki in test [1] and in test [2] were greater than 562 nM and greater than 319 nM, respectively.

For the molecule `N#CC[C@]1(n2cc(C(N)=O)c(NC(=O)C3CC3)n2)CC[C@H](NCc2ccccc2F)CC1` [Example 111], the Ki in test [1] stood at 9.5 nM; in test [2], 87.3 nM.

On to `N#CCC1(n2cc(C(N)=O)c(NC(=O)C3CC3)n2)CCN(Cc2ccc(SC(F)(F)F)cc2)CC1` [Example 68], for which the Ki in test [1] (read-out: JAK1 Ki) was 39 nM; in test [2], greater than 319 nM.

For `N#CCC1(n2cc(C(N)=O)c(NC(=O)C3CC3)n2)CCN(Cc2ccc(-n3cnc4ccccc43)cc2)CC1` [Example 88], the results for the Ki in test [1] (read-out: JAK1 Ki) and in test [2] were 26.3 nM and 150 nM, respectively.

Regarding `N#CCC1(n2cc(C(N)=O)c(NC(=O)C3CC3)n2)CCN(Cc2cccc(Br)c2)CC1` [Example 51], the Ki in test [1] (read-out: JAK1 Ki) was 6.5 nM; in test [2], 53.7 nM.

For the molecule `N#CC[C@]1(n2cc(C(N)=O)c(NC(=O)C3CC3)n2)CC[C@@H](N2CC3(CCC3)C2)CC1` [Example 108], the Ki was 466 nM in test [1] and 205 nM in test [2].

For `N#CCC1(n2cc(C(N)=O)c(NC(=O)C3CC3)n2)CCN(Cc2ccc3c(c2)CSC3)CC1` [Example 91], the Ki worked out at 8.3 nM in test [1] (read-out: JAK1 Ki) and 173 nM in test [2].

For the molecule `CN(C)C(=O)c1ccccc1-c1ccc(CN2CCC(CC#N)(n3cc(C(N)=O)c(NC(=O)C4CC4)n3)CC2)cc1` [Example 144, 1-[4-(cyanomethyl)-1-[[4-[2-(dimethylcarbamoyl)phenyl]phenyl]methyl]-4-piperidyl]-3-(cyclopropanecarbonylamino) pyrazole-4-carboxamide], the inhibitory constant (Ki) in test [1] (read-out: JAK1 Ki) was determined as 8.8 nM; in test [2], 63.5 nM.

With `N#CCC1(n2cc(C(N)=O)c(NC(=O)C3CC3)n2)CCN(Cc2cccc(NS(=O)(=O)C(F)(F)F)c2)CC1` [Example 93], the inhibitory constant (Ki) in test [1] (read-out: JAK1 Ki) was 72.1 nM; in test [2], greater than 319 nM.

Regarding `N#CCC1(n2cc(C(N)=O)c(NC(=O)C3CC3)n2)CCN(Cc2ccc(C(F)(F)F)cc2)CC1` [Example 63], the values for the Ki in test [1] (read-out: JAK1 Ki) and in test [2] were 14.4 nM and 134 nM, respectively.

As to `N#CCC1(n2cc(C(N)=O)c(NC(=O)C3CC3)n2)CCN(Cc2ccc(-n3cncn3)cc2)CC1` [Example 86], the Ki is 99.7 nM in test [1] (read-out: JAK1 Ki) and greater than 319 nM in test [2].

In the case of `N#CCC1(n2cc(C(N)=O)c(NC(=O)C3CC3)n2)CCN(Cc2cccc(I)c2)CC1` [Example 54], the Ki was determined as 10.7 nM in test [1] (read-out: JAK1 Ki) and 102 nM in test [2].

In the case of `N#CCC1(n2cc(C(N)=O)c(NC(=O)C3CC3)n2)CCN(Cc2ccc(-c3ccn(C(F)(F)F)n3)cc2)CC1` [Example 83], the figures for the Ki in test [1] (read-out: JAK1 Ki) and in test [2] were 16.1 nM and 313 nM, respectively.

With `N#CCC1(n2cc(C(N)=O)c(NC(=O)C3CC3)n2)CCN(C2CCN(C(=O)c3ccnc(C(F)(F)F)c3F)CC2)CC1` [Example 98], the Ki is 74.6 nM in test [1] (read-out: JAK1 Ki) and 152 nM in test [2].

As to `N#CC[C@]1(n2cc(C(N)=O)c(NC(=O)C3CC3)n2)CC[C@H](NCc2ccc(C#N)cc2)CC1` [Example 121], the figures for the Ki in test [1] and in test [2] were 14.6 nM and 282 nM, respectively.

Regarding `N#CC[C@]1(n2cc(C(N)=O)c(NC(=O)C3CC3)n2)CCN(Cc2ccccc2)C[C@H]1F` [Example 165], the Ki in test [1] (read-out: JAK1 Ki) was determined as 27.1 nM; in test [2], 211 nM.

Turning to `COC1(C(F)(F)F)CN([C@H]2CC[C@](CC#N)(n3cc(C(N)=O)c(NC(=O)C4CC4)n3)CC2)C1` [Example 132], the Ki in test [1] (read-out: JAK1 Ki) was 217 nM; in test [2] it was greater than 319 nM.

On to `N#CCC1(n2cc(C(N)=O)c(NC(=O)C3CC3)n2)CCN(Cc2ccccc2OC(F)(F)F)CC1` [Example 47], for which the Ki in test [1] (read-out: JAK1 Ki) was found to be 34.1 nM; in test [2] it was 250 nM.

On to `N#CCC1(n2cc(C(N)=O)c(NC(=O)[C@H]3CC34CCC4)n2)CCN(CC(F)(F)F)CC1` [Example 31], for which the Ki in test [1] (read-out: JAK1 Ki) is 96.4 nM; in test [2], 189 nM.

Take `N#CC[C@]1(n2cc(C(N)=O)c(NC(=O)C3CC3)n2)CC[C@@H](NCc2ccccc2)CC1` [Example 110]: the Ki in test [1] worked out at 5.3 nM; in test [2] it was 254 nM.

Regarding `N#CC[C@]1(n2cc(C(N)=O)c(NC(=O)C3CC3)n2)CC[C@H](NCc2cccc(C#N)c2)CC1` [Example 123], the values for the inhibition constant (Ki) in test [1] and in test [2] were greater than 562 nM and greater than 319 nM, respectively.

On to `CS(=O)(=O)Nc1ccc(CN2CCC(CC#N)(n3cc(C(N)=O)c(NC(=O)C4CC4)n3)CC2)cc1` [Example 46], for which the Ki in test [1] (read-out: JAK1 Ki) amounted to 41.4 nM; in test [2], 284 nM.
